Key:
[1] = Compound cytotoxicity, XTT-based colorimetric assay; format: cell-based; settings: human; uninfected MT2 cells, day 4, XTT
Description: Compound cytotoxicity and the corresponding CC50 values were determined using the same protocol as described in the antiviral assay except that uninfected cells were used. Cytotoxicity was assessed on day 4 in uninfected MT2 cells by using a XTT (2,3-bis[2-Methoxy-4-nitro-5-sulfophenyl]-2H-tetrazolium-5-carboxyanilide inner salt)-based colorimetric assay (Sigma-Aldrich, St Louis, Mo).

[2] = test system: recombinant NL4-3 virus (nef section replaced with Renilla luciferase gene) in MT-2 cells; test: HIV cell culture assay (antiviral activity, luciferase readout in infected MT-2 cells); format: cell-based; settings: NL43
Description: HIV cell culture assay—MT-2 cells, 293T cells and the proviral DNA clone of NL4-3 virus were obtained from the NIH AIDS Research and Reference Reagent Program. MT-2 cells were propagated in RPMI 1640 media supplemented with 10% heat inactivated fetal bovine serum (FBS), […]. The 293T cells were propagated in DMEM media supplemented with 10% heat inactivated FBS, […]. A recombinant NL4-3 proviral clone, in which a section of the nef gene was replaced with the Renilla luciferase gene, was used to make the reference virus used in these studies. The recombinant virus was prepared through transfection of the recombinant NL4-3 proviral clone into 293T cells using Transit-293 Transfection Reagent from Minis Bio LLC (Madison, Wis.). Supernatent was harvested after 2-3 days and the amount of virus present was titered in MT-2 cells using luciferase enzyme activity as a marker by measuring luciferase enzyme activity. Luciferase was quantitated using the EnduRen Live Cell Substrate from Promega (Madison, Wis.). Antiviral activities of compounds toward the recombinant virus were quantified by measuring luciferase activity in MT-2 cells infected for 4-5 days with the recombinant virus in the presence of serial dilutions of the compound.
The 50% effective concentration (EC5o) was calculated by using the exponential form of the median effect equation where (Fa)=1/[1+(ED50/drug conc.)m] (Johnson Va., Byington R T. Infectivity Assay. In Techniques in HIV Research. ed. Aldovini A, Walker B D. 71-76. New York: Stockton Press.1990). The 50% inhibitory concentration (EC50) was calculated by using the exponential form of the median effect equation where percent inhibition=1/[1 +(EC50/drug concentration)m], where m is a parameter that reflects the slope of the concentration-response curve.

Structure (SMILES): C[C@@H]1CC(c2ccc3c(=O)n(-c4ccc(Cl)c5c(NS(C)(=O)=O)nn(C)c45)c([C@H](Cc4cc(F)cc(F)c4)NC(=O)Cn4nc(C(F)F)c5c4C(F)(F)[C@@H]4C[C@H]54)nc3c2)C[C@H](C)O1 (stereo partly drawn) [Example 22, N-((1S)-1-((3P)-3-(4-chloro-1-methyl-3-(methylsulfonamido)-1H-indazol-7-yl)-7-((2R,6S)-2,6-dimethyltetrahydro-2H-pyran-4-yl)-4-oxo-3,4-dihydroquinazolin-2-yl)-2-(3,5-difluorophenyl)ethyl)-2-((3bS,4aR)-3-(difluoromethyl)-5,5-difluoro-3b,4,4a,5-tetrahydro-1H-cyclopropa[3,4]cyclopenta[1,2-c]pyrazol-1-yl)acetamide]
- CC50 at 4 day [1]: > 500 nM
- EC50 [2]: 0.082 nM

— patent US20210393633A1, “INHIBITORS OF HUMAN IMMUNODEFICIENCY VIRUS REPLICATION” (ViiV HEALTHCARE UK (NO.5) LIMITED, priority 2018, published 2021)
